From ChEMBL document CHEMBL4371089, “Novel, potent, selective, and brain penetrant phosphodiesterase 10A inhibitors” (Bioorg Med Chem Lett, 2019)
Each block holds one compound with its values, some of them ahead of it.

Key:
in vivo [1] = conditions: rat, plasma, ip, 2 mg/kg
[2] = rat, in vivo, ip, 2 mg/kg, 1 h
[3] = rat, in vivo, ip, 2 mg/kg, 1 h; remark: listed apart in the source
in vivo [4] = conditions: rat, iv, 2 mg/kg
in vivo [5] = conditions: rat, brain/plasma, ip, 2 mg/kg
in vivo [6] = conditions: rat, po, 2 mg/kg
in vivo [7] = conditions: rat, brain/plasma, ip, 2 mg/kg; remark: listed apart in the source
in vivo [8] = conditions: rat, brain, ip, 2 mg/kg
P-gp = assay: in vitro; conditions: dog, MDCK-MDR1

concentration at 1 h (in vivo [1]): 72 ng/mL
Cp(f)/dose [2]: 0.1 ng/mL
Druguptake(free)/dose [3]: 0.4 ng/mL
Vd (in vivo [4]): 2.4 L/kg
Kp uu at 1 h (in vivo [5]): 3.81
bioavailability (in vivo [6]): 19%
Kp at 1 h (in vivo [7]): 1.67
concentration at 1 h (in vivo [8]): 118 ng/mL
Papp (P-gp): 33 ×10⁻⁶ cm/s
SMILES: CCCc1nc(C)c2c(C)nc3ccc(OC)nc3n12

SMILES: COc1cc(OC)c2nnc3c(c(C4CC4)nn3C)c2c1
Papp (P-gp): 62 ×10⁻⁶ cm/s

SMILES: Cn1nc(-c2ccccc2Cl)c2c3cc(F)cc(F)c3nnc21
Papp (P-gp): 36 ×10⁻⁶ cm/s

SMILES: CCCc1nc(C)c2c(C)nc3scnc3n12
Papp (P-gp): 68 ×10⁻⁶ cm/s
